Measurements: patent publication US10125134B2 (Mirati Therapeutics, Inc., priority 2016, dated 2018)
Where two headings read alike, the source gives them in different places.

Legend:
KRas G12C = KRas G12C (Homo sapiens, UniProt P01116, C118S/C51S/C80L/G12C); assay: KRas G12C Modification Assay (LCMS detection of covalent adduct); format: binding; conditions: normalized percent of control; tested at 5 μM concentration for 3 hours
Method in brief: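 Covalent modification was read by reverse-phase LC/MS of intact protein after compound exposure, each reaction stopped at its time point with 25 mM acetic acid. Unmodified-protein signal, taken as percent of total, was normalised to untreated protein and reported as POC.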

[1] = test system: NCI-H358 cells (express KRas G12C), Phospho-ERK; assay: Cellular inhibition of KRas G12C: Phospho-ERK in NCI-H358 cells; format: cell-based; conditions: Homo sapiens, pERK(Thr202/Tyr204) normalized with GAPDH, NCI-H358 cells, 3 hours, read-out: IC50
Method in brief: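 IC50 derived by 4-parameter fit of GAPDH-normalized pERK(Thr202/Tyr204) signal, as percent of DMSO control. Signal came from in-cell immunodetection with infrared secondaries after 3 h compound exposure of KRas G12C NCI-H358 cells at 0.5% DMSO.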

Structure (SMILES)	POC (KRas G12C)	IC50 [1]	IC50 ([1]; NCI-H358, 3 h)
C=CC(=O)N1CCN(c2nc(OC[C@@H]3CCCN3C)nc3c2CCN(c2ccccc2C(F)(F)F)C3)CC1CC#N (stereo partly drawn) [Example 210, 2-(1-acryloyl-4-(2-(((S)-1-methylpyrrolidin-2-yl)methoxy)-7-(2-(trifluoromethyl)phenyl)-5,6,7,8-tetrahydropyrido[3,4-d]pyrimidin-4-yl)piperazin-2-yl)acetonitrile]	C (“C”>50% POC)	0.1 to 1000 nM	
C=CC(=O)N1CCN(c2nc(OC[C@@H]3CCCN3C)nc3c2CCN(c2cccc(Cl)c2CC)C3)C[C@@H]1CC#N [Example 337, 2-[(2S)-4-[7-(3-chloro-2-ethyl-phenyl)-2-[[(2S)-1-methylpyrrolidin-2-yl]methoxy]-6,8-dihydro-5H-pyrido[3,4-d]pyrimidin-4-yl]-1-prop-2-enoyl-piperazin-2-yl]acetonitrile]	C (“C”>50% POC)		0.1 to 1000 nM
C=CC(=O)N1CCN(c2nc(OCCCN3CCOCC3)nc3c2CCN(c2c(C(F)(F)F)ccc4[nH]ncc24)C3)CC1 [Example 180, 1-[4-[2-(3-morpholinopropoxy)-7-[5-(trifluoromethyl)-1H-indazol-4-yl]-6,8-dihydro-5H-pyrido[3,4-d]pyrimidin-4-yl]piperazin-1-yl]prop-2-en-1-one]	C (“C”>50% POC)	0.1 to 1000 nM	
C=CC(=O)N1CCN(c2nc(O[C@H](C)CN3CCCC3)nc3c2CCN(c2cc(O)cc4ccccc24)C3)CC1 [Example 120, (R)-1-(4-(7-(3-hydroxynaphthalen-1-yl)-2-((1-(pyrrolidin-1-yl)propan-2-yl)oxy)-5,6,7,8-tetrahydropyrido[3,4-d]pyrimidin-4-yl)piperazin-1-yl)prop-2-en-1-one]	C (“C”>50% POC)		0.1 to 1000 nM
C=CC(=O)N1CCN(c2nc(OC[C@@H]3CCCN3C)nc3c2CCN(c2c(C)c(O)cc4ccccc24)C3)CC1 [Example 175, (S)-1-(4-(7-(3-hydroxy-2-methylnaphthalen-1-yl)-2-((1-methylpyrrolidin-2-yl)methoxy)-5,6,7,8-tetrahydropyrido[3,4-d]pyrimidin-4-yl)piperazin-1-yl)prop-2-en-1-one]	C (“C”>50% POC)	0.1 to 1000 nM	
Cc1cccc2cccc(N3CCc4c(nc(OCCC(=O)N(C)C)nc4N4CCN(C(=O)/C=C/CN(C)C)[C@@H](CC#N)C4)C3)c12 [Example 460, (S,E)-3-((4-(3-(cyanomethyl)-4-(4-(dimethylamino)but-2-enoyl)piperazin-1-yl)-7-(8-methylnaphthalen-1-yl)-5,6,7,8-tetrahydropyrido[3,4-d]pyrimidin-2-yl)oxy)-N,N-dimethylpropanamide]	C (“C”>50% POC)	0.1 to 1000 nM	
C=CC(=O)N1CCN(c2ncnc3c2CC(C)N(c2cc(O)cc4ccccc24)C3)CC1 (centres unmarked) [Example 6, 1-(4-(7-(3-hydroxynaphthalen-1-yl)-6-methyl-5,6,7,8-tetrahydropyrido[3,4-d]pyrimidin-4-yl)piperazin-1-yl)prop-2-en-1-one]	B (“B”>25% POC−≤50% POC)	> 1000 nM	
C=CC(=O)N1CCN(c2nc(OC[C@@H]3CCCN3C)nc3c2CCN(c2cccc4cccn24)C3)C[C@@H]1CC#N [Example 440, 2-((S)-1-acryloyl-4-(7-(indolizin-5-yl)-2-(((S)-1-methylpyrrolidin-2-yl)methoxy)-5,6,7,8-tetrahydropyrido[3,4-d]pyrimidin-4-yl)piperazin-2-yl)acetonitrile]	C (“C”>50% POC)		0.1 to 1000 nM
C=CC(=O)N1CCN(c2nc(OCCN(C)C)nc3c2CCN(c2cc(O)cc4ccccc24)C3)C[C@@H]1CC#N [Example 176, 2-[(2S)-4-[2-[2-(dimethylamino)ethoxy]-7-(3-hydroxy-1-naphthyl)-6,8-dihydro-5H-pyrido[3,4-d]pyrimidin-4-yl]-1-prop-2-enoyl-piperazin-2-yl]acetonitrile]	C (“C”>50% POC)		0.1 to 1000 nM
C=CC(=O)N1CCN(c2nc(OCCN3CCCC(F)(F)C3)nc3c2CCN(c2cccc4cccc(Cl)c24)C3)C[C@@H]1CC#N [Example 453, 2-[(2S)-4-[7-(8-chloro-1-naphthyl)-2-[2-(3,3-difluoro-1-piperidyl)ethoxy]-6,8-dihydro-5H-pyrido[3,4-d]pyrimidin-4-yl]-1-prop-2-enoyl-piperazin-2-yl]acetonitrile]	C (“C”>50% POC)		0.1 to 1000 nM
C=CC(=O)N1CCN(c2nc(OC[C@@H]3C[C@@H](O)CN3C)nc3c2CCN(c2cccc4ccccc24)C3)C[C@@H]1CC#N [Example 315, 2-[(2S)-4-[2-[[(2S,4R)-4-hydroxy-1-methyl-pyrrolidin-2-yl]methoxy]-7-(1-naphthyl)-6,8-dihydro-5H-pyrido[3,4-d]pyrimidin-4-yl]-1-prop-2-enoyl-piperazin-2-yl]acetonitrile]	C (“C”>50% POC)		0.1 to 1000 nM
C=CC(=O)N1CCN(c2nc(OC[C@@H]3CCCN3C)nc3c2CCN(c2c(Cl)ccc4[nH]ncc24)C3)CC1 [Example 250, 1-[4-[7-(5-chloro-1H-indazol-4-yl)-2-[[(2S)-1-methylpyrrolidin-2-yl]methoxy]-6,8-dihydro-5H-pyrido[3,4-d]pyrimidin-4-yl]piperazin-1-yl]prop-2-en-1-one]	C (“C”>50% POC)		> 1000 nM
C=CC(=O)N1CCN(c2nc(OC[C@H]3CCC(=O)N3)nc3c2CCN(c2cc(O)cc4ccccc24)C3)CC1 [Example 58, (R)-5-(((4-(4-acryloylpiperazin-1-yl)-7-(3-hydroxynaphthalen-1-yl)-5,6,7,8-tetrahydropyrido[3,4-d]pyrimidin-2-yl)oxy)methyl)pyrrolidin-2-one]	C (“C”>50% POC)		> 1000 nM
C=CC(=O)N1CCN(c2nc(OCC3CCN(C4CC4)C3)nc3c2CCN(c2cc(O)cc4ccccc24)C3)CC1 (centres unmarked) [Example 190, 1-(4-(2-((1-cyclopropylpyrrolidin-3-yl)methoxy)-7-(3-hydroxynaphthalen-1-yl)-5,6,7,8-tetrahydropyrido[3,4-d]pyrimidin-4-yl)piperazin-1-yl)prop-2-en-1-one]	C (“C”>50% POC)		0.1 to 1000 nM
C=CC(=O)N1CCN(c2nc(OC[C@@H]3CCCN3C)nc3c2CCN(c2cc(F)ccc2OC(F)(F)F)C3)CC1CC#N (stereo partly drawn) [Example 225, 2-(1-acryloyl-4-(7-(5-fluoro-2-(trifluoromethoxy)phenyl)-2-(((S)-1-methylpyrrolidin-2-yl)methoxy)-5,6,7,8-tetrahydropyrido[3,4-d]pyrimidin-4-yl)piperazin-2-yl)acetonitrile]	C (“C”>50% POC)		0.1 to 1000 nM
C=CC(=O)N1CCN(c2nc(O[C@H](C)CN(C)C)nc3c2CCN(c2cc(O)c(Cl)c4ccccc24)C3)CC1 [Example 125, (R)-1-(4-(7-(4-chloro-3-hydroxynaphthalen-1-yl)-2-((1-(dimethylamino)propan-2-yl)oxy)-5,6,7,8-tetrahydropyrido[3,4-d]pyrimidin-4-yl)piperazin-1-yl)prop-2-en-1-one]	A (“A”≤25% POC)	> 1000 nM	
C=CC(=O)N1CCN(c2nc(OC[C@H]3CN(C)CCO3)nc3c2CCN(c2cccc4ccccc24)C3)CC1CC#N (stereo partly drawn) [Example 270, 2-(1-acryloyl-4-(2-(((R)-4-methylmorpholin-2-yl)methoxy)-7-(naphthalen 1-yl)-5,6,7,8-tetrahydropyrido[3,4-d]pyrimidin-4-yl)piperazin-2-yl)acetonitrile]	C (“C”>50% POC)		0.1 to 1000 nM
C=CC(=O)N1CCN(c2nc(OC[C@@H]3CCCN3C)nc3c2CCN(c2ccncc2C)C3)C[C@@H]1CC#N [Example 345, 2-[(2S)-4-[7-(3-methyl-4-pyridyl)-2-[[(2S)-1-methylpyrrolidin-2-yl]methoxy]-6,8-dihydro-5H-pyrido[3,4-d]pyrimidin-4-yl]-1-prop-2-enoyl-piperazin-2-yl]acetonitrile]	C (“C”>50% POC)		> 1000 nM
C=CC(=O)N1CCN(c2nc(OC[C@@H]3CC(F)(F)CN3C)nc3c2CCN(c2cccc4ccccc24)C3)C[C@@H]1CC#N [Example 445, 2-((S)-1-Acryloyl-4-(2-(((S)-4,4-difluoro-1-methylpyrrolidin-2-yl)methoxy)-7-(naphthalen-1-yl)-5,6,7,8-tetrahydropyrido[3,4-d]pyrimidin-4-yl)piperazin-2-yl)acetonitrile]	C (“C”>50% POC)		0.1 to 1000 nM
C=CC(=O)N1CCN(c2nc(OCCCN(C)C)nc3c2CCN(c2cc(O)cc4ccccc24)C3)CC1 [Example 10, 1-(4-(2-(3-(dimethylamino)propoxy)-7-(3-hydroxynaphthalen-1-yl)-5,6,7,8-tetrahydropyrido[3,4-d]pyrimidin-4-yl)piperazin-1-yl)prop-2-en-1-one]	C (“C”>50% POC)		> 1000 nM
C=CC(=O)N1CCN(c2nc(NC3CCN(C4CC4)CC3)nc3c2CCN(c2cc(O)cc4ccccc24)C3)CC1 [Example 204, 1-(4-(2-((1-cyclopropylpiperidin-4-yl)amino)-7-(3-hydroxynaphthalen-1-yl)-5,6,7,8-tetrahydropyrido[3,4-d]pyrimidin-4-yl)piperazin-1-yl)prop-2-en-1-one]	C (“C”>50% POC)	> 1000 nM	
C=CC(=O)N1CCN(c2nc(OC[C@@H]3CCCN3C)nc3c2CCN(c2cccc4ccc(Cl)cc24)C3)CC1CC#N (stereo partly drawn) [Example 253, 2-(1-acryloyl-4-(7-(7-chloronaphthalen-1-yl)-2-(((S)-1-methylpyrrolidin-2-yl)methoxy)-5,6,7,8-tetrahydropyrido[3,4-d]pyrimidin-4-yl)piperazin-2-yl)acetonitrile]	C (“C”>50% POC)		0.1 to 1000 nM
